# In the NIST ThermoML archive (doi:10.1021/je200195q):
# Numbers after ± are expanded uncertainties.
# Assay: activity coefficient (dimensionless); of the first substance listed, at infinite dilution; xn = mol fraction of the nth substance listed
# Details: 332.85 K; 101 kPa; Liquid; Chromatography; x1 = 0
row,Structure (SMILES),activity coefficient
1,CC1CCCC1 [methylcyclopentane] + CCCCCC[n+]1ccn(C)c1.FC(F)(F)C(F)(F)[P-](F)(F)(F)(C(F)(F)C(F)(F)F)C(F)(F)C(F)(F)F,4.09 ± 0.28
2,C[N+](=O)[O-] [nitromethane] + CCCCCC[n+]1ccn(C)c1.FC(F)(F)C(F)(F)[P-](F)(F)(F)(C(F)(F)C(F)(F)F)C(F)(F)C(F)(F)F,0.438 ± 0.035
3,CCCCCCCCC [nonane] + CCCCCC[n+]1ccn(C)c1.FC(F)(F)C(F)(F)[P-](F)(F)(F)(C(F)(F)C(F)(F)F)C(F)(F)C(F)(F)F,15.5 ± 1.1

# Same assay, conditions: 333.15 K; 101 kPa; Liquid; Chromatography; x1 = 0
row,Structure (SMILES),activity coefficient
1,CCCCCCC [heptane] + CCCCCCCCCCn1cc[n+](CCCCCCCCCC)c1C.O=S(=O)([N-]S(=O)(=O)C(F)(F)F)C(F)(F)F,2.11 ± 0.14
2,C=CCCCC [hex-1-ene] + CCCCCCCCCCn1cc[n+](CCCCCCCCCC)c1C.O=S(=O)([N-]S(=O)(=O)C(F)(F)F)C(F)(F)F,1.38 ± 0.09
3,CCCCCC [hexane] + CCCCCCCCCCn1cc[n+](CCCCCCCCCC)c1C.O=S(=O)([N-]S(=O)(=O)C(F)(F)F)C(F)(F)F,1.79 ± 0.12
4,C=O [methanal] + CCCCCCCCCCn1cc[n+](CCCCCCCCCC)c1C.O=S(=O)([N-]S(=O)(=O)C(F)(F)F)C(F)(F)F,0.08 ± 0.03
5,CO [methanol] + CCCCCCCCCCn1cc[n+](CCCCCCCCCC)c1C.O=S(=O)([N-]S(=O)(=O)C(F)(F)F)C(F)(F)F,0.857 ± 0.055
6,CC1CCCCC1 [methylcyclohexane] + CCCCCCCCCCn1cc[n+](CCCCCCCCCC)c1C.O=S(=O)([N-]S(=O)(=O)C(F)(F)F)C(F)(F)F,1.48 ± 0.098
7,CC1CCCC1 [methylcyclopentane] + CCCCCCCCCCn1cc[n+](CCCCCCCCCC)c1C.O=S(=O)([N-]S(=O)(=O)C(F)(F)F)C(F)(F)F,1.33 ± 0.086
8,C[N+](=O)[O-] [nitromethane] + CCCCCCCCCCn1cc[n+](CCCCCCCCCC)c1C.O=S(=O)([N-]S(=O)(=O)C(F)(F)F)C(F)(F)F,0.559 ± 0.04
9,CCCCCCCCC [nonane] + CCCCCCCCCCn1cc[n+](CCCCCCCCCC)c1C.O=S(=O)([N-]S(=O)(=O)C(F)(F)F)C(F)(F)F,3.17 ± 0.22

# Same assay, conditions: 342.75 K; 101 kPa; Liquid; Chromatography; x1 = 0
row,Structure (SMILES),activity coefficient
1,CCCCCCC [heptane] + CCCCn1cc[n+](C)c1.O=S(=O)([N-]S(=O)(=O)C(F)(F)C(F)(F)F)C(F)(F)C(F)(F)F,12.4 ± 0.84
2,C=CCCCC [hex-1-ene] + CCCCn1cc[n+](C)c1.O=S(=O)([N-]S(=O)(=O)C(F)(F)C(F)(F)F)C(F)(F)C(F)(F)F,5.55 ± 0.38
3,CCCCCC [hexane] + CCCCn1cc[n+](C)c1.O=S(=O)([N-]S(=O)(=O)C(F)(F)C(F)(F)F)C(F)(F)C(F)(F)F,8.8 ± 0.6
4,C=O [methanal] + CCCCn1cc[n+](C)c1.O=S(=O)([N-]S(=O)(=O)C(F)(F)C(F)(F)F)C(F)(F)C(F)(F)F,0.155 ± 0.029
5,CO [methanol] + CCCCn1cc[n+](C)c1.O=S(=O)([N-]S(=O)(=O)C(F)(F)C(F)(F)F)C(F)(F)C(F)(F)F,0.997 ± 0.062
6,CC1CCCCC1 [methylcyclohexane] + CCCCn1cc[n+](C)c1.O=S(=O)([N-]S(=O)(=O)C(F)(F)C(F)(F)F)C(F)(F)C(F)(F)F,7.96 ± 0.54
7,CC1CCCC1 [methylcyclopentane] + CCCCn1cc[n+](C)c1.O=S(=O)([N-]S(=O)(=O)C(F)(F)C(F)(F)F)C(F)(F)C(F)(F)F,6.05 ± 0.41
8,C[N+](=O)[O-] [nitromethane] + CCCCn1cc[n+](C)c1.O=S(=O)([N-]S(=O)(=O)C(F)(F)C(F)(F)F)C(F)(F)C(F)(F)F,0.682 ± 0.046
9,CCCCCCCCC [nonane] + CCCCn1cc[n+](C)c1.O=S(=O)([N-]S(=O)(=O)C(F)(F)C(F)(F)F)C(F)(F)C(F)(F)F,26 ± 1.8

# Same assay, conditions: 343.15 K; 101 kPa; Liquid; Chromatography; x1 = 0
row,Structure (SMILES),activity coefficient
1,CCCCCCC [heptane] + CCCCCCCCCCn1cc[n+](CCCCCCCCCC)c1C.O=S(=O)([N-]S(=O)(=O)C(F)(F)F)C(F)(F)F,2.08 ± 0.14
2,C=CCCCC [hex-1-ene] + CCCCCCCCCCn1cc[n+](CCCCCCCCCC)c1C.O=S(=O)([N-]S(=O)(=O)C(F)(F)F)C(F)(F)F,1.36 ± 0.089
3,CCCCCC [hexane] + CCCCCCCCCCn1cc[n+](CCCCCCCCCC)c1C.O=S(=O)([N-]S(=O)(=O)C(F)(F)F)C(F)(F)F,1.76 ± 0.12
4,C=O [methanal] + CCCCCCCCCCn1cc[n+](CCCCCCCCCC)c1C.O=S(=O)([N-]S(=O)(=O)C(F)(F)F)C(F)(F)F,0.085 ± 0.03
5,CO [methanol] + CCCCCCCCCCn1cc[n+](CCCCCCCCCC)c1C.O=S(=O)([N-]S(=O)(=O)C(F)(F)F)C(F)(F)F,0.755 ± 0.05
6,CC1CCCCC1 [methylcyclohexane] + CCCCCCCCCCn1cc[n+](CCCCCCCCCC)c1C.O=S(=O)([N-]S(=O)(=O)C(F)(F)F)C(F)(F)F,1.45 ± 0.095
7,CC1CCCC1 [methylcyclopentane] + CCCCCCCCCCn1cc[n+](CCCCCCCCCC)c1C.O=S(=O)([N-]S(=O)(=O)C(F)(F)F)C(F)(F)F,1.3 ± 0.084
8,C[N+](=O)[O-] [nitromethane] + CCCCCCCCCCn1cc[n+](CCCCCCCCCC)c1C.O=S(=O)([N-]S(=O)(=O)C(F)(F)F)C(F)(F)F,0.536 ± 0.039
9,CCCCCCCCC [nonane] + CCCCCCCCCCn1cc[n+](CCCCCCCCCC)c1C.O=S(=O)([N-]S(=O)(=O)C(F)(F)F)C(F)(F)F,3.45 ± 0.23

# Same assay, conditions: 354.65 K; 101 kPa; Liquid; Chromatography; x1 = 0
row,Structure (SMILES),activity coefficient
1,CCCCCCC [heptane] + CCCCCC[n+]1ccn(C)c1.FC(F)(F)C(F)(F)[P-](F)(F)(F)(C(F)(F)C(F)(F)F)C(F)(F)C(F)(F)F,6.62 ± 0.45
2,C=CCCCC [hex-1-ene] + CCCCCC[n+]1ccn(C)c1.FC(F)(F)C(F)(F)[P-](F)(F)(F)(C(F)(F)C(F)(F)F)C(F)(F)C(F)(F)F,3.14 ± 0.21
3,CCCCCC [hexane] + CCCCCC[n+]1ccn(C)c1.FC(F)(F)C(F)(F)[P-](F)(F)(F)(C(F)(F)C(F)(F)F)C(F)(F)C(F)(F)F,4.41 ± 0.3
4,C=O [methanal] + CCCCCC[n+]1ccn(C)c1.FC(F)(F)C(F)(F)[P-](F)(F)(F)(C(F)(F)C(F)(F)F)C(F)(F)C(F)(F)F,0.146 ± 0.029
5,CO [methanol] + CCCCCC[n+]1ccn(C)c1.FC(F)(F)C(F)(F)[P-](F)(F)(F)(C(F)(F)C(F)(F)F)C(F)(F)C(F)(F)F,1.58 ± 0.1
6,CC1CCCCC1 [methylcyclohexane] + CCCCCC[n+]1ccn(C)c1.FC(F)(F)C(F)(F)[P-](F)(F)(F)(C(F)(F)C(F)(F)F)C(F)(F)C(F)(F)F,4.49 ± 0.31
7,CC1CCCC1 [methylcyclopentane] + CCCCCC[n+]1ccn(C)c1.FC(F)(F)C(F)(F)[P-](F)(F)(F)(C(F)(F)C(F)(F)F)C(F)(F)C(F)(F)F,3.52 ± 0.24
8,C[N+](=O)[O-] [nitromethane] + CCCCCC[n+]1ccn(C)c1.FC(F)(F)C(F)(F)[P-](F)(F)(F)(C(F)(F)C(F)(F)F)C(F)(F)C(F)(F)F,0.41 ± 0.034
9,CCCCCCCCC [nonane] + CCCCCC[n+]1ccn(C)c1.FC(F)(F)C(F)(F)[P-](F)(F)(F)(C(F)(F)C(F)(F)F)C(F)(F)C(F)(F)F,12.4 ± 0.85

# Same assay, conditions: 362.65 K; 101 kPa; Liquid; Chromatography; x1 = 0
row,Structure (SMILES),activity coefficient
1,CCCCCCC [heptane] + CCCCn1cc[n+](C)c1.O=S(=O)([N-]S(=O)(=O)C(F)(F)C(F)(F)F)C(F)(F)C(F)(F)F,11.6 ± 0.79
2,C=CCCCC [hex-1-ene] + CCCCn1cc[n+](C)c1.O=S(=O)([N-]S(=O)(=O)C(F)(F)C(F)(F)F)C(F)(F)C(F)(F)F,5.24 ± 0.36
3,CCCCCC [hexane] + CCCCn1cc[n+](C)c1.O=S(=O)([N-]S(=O)(=O)C(F)(F)C(F)(F)F)C(F)(F)C(F)(F)F,8.43 ± 0.57
4,C=O [methanal] + CCCCn1cc[n+](C)c1.O=S(=O)([N-]S(=O)(=O)C(F)(F)C(F)(F)F)C(F)(F)C(F)(F)F,0.164 ± 0.029
5,CO [methanol] + CCCCn1cc[n+](C)c1.O=S(=O)([N-]S(=O)(=O)C(F)(F)C(F)(F)F)C(F)(F)C(F)(F)F,0.942 ± 0.059
6,CC1CCCCC1 [methylcyclohexane] + CCCCn1cc[n+](C)c1.O=S(=O)([N-]S(=O)(=O)C(F)(F)C(F)(F)F)C(F)(F)C(F)(F)F,7.07 ± 0.48
7,CC1CCCC1 [methylcyclopentane] + CCCCn1cc[n+](C)c1.O=S(=O)([N-]S(=O)(=O)C(F)(F)C(F)(F)F)C(F)(F)C(F)(F)F,5.79 ± 0.4
8,C[N+](=O)[O-] [nitromethane] + CCCCn1cc[n+](C)c1.O=S(=O)([N-]S(=O)(=O)C(F)(F)C(F)(F)F)C(F)(F)C(F)(F)F,0.699 ± 0.047
9,CCCCCCCCC [nonane] + CCCCn1cc[n+](C)c1.O=S(=O)([N-]S(=O)(=O)C(F)(F)C(F)(F)F)C(F)(F)C(F)(F)F,21.8 ± 1.5
